This note sets out measurements from PubChem BioAssay (NCI).

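Five compound concentrations were applied to cells in 96-well plates for 48 hours; endpoints were derived by simple linear interpolation of the resulting dose-response curve. At the TGI there is no net growth.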

Among the test systems are CAKI-1 renal; CCRF-CEM leukemia; DU-145 prostate; EKVX NSCLC; HCC-2998 colon; LOX IMVI melanoma; MCF7 breast; MDA-N; NCI-H226 lung; NCI-H23 lung; OVCAR-8 ovarian; SF-268 CNS; SF-295 CNS; SK-MEL-2 melanoma; SN12C renal; SNB-75 CNS; UACC-62 melanoma; MDA-MB-231 breast; TK-10 renal.
What all share (assay): DTP human tumour cell line panel, 48 h

What is called TGI is the concentration at which net growth stops. High values mean less potent growth arrest, low ones more potent growth arrest. As to `CCC(=O)Nc1ccc(NCC(=O)Nc2ccc(OC)cc2)cc1`, the concentration for total growth inhibition (TGI) in the assay with CAKI-1 renal is more than 100 µM; in the assay on CCRF-CEM leukemia, more than 100 µM; in the assay with DU-145 prostate, more than 100 µM; in the assay on EKVX NSCLC, 70.7 µM; in the assay on HCC-2998 colon, 35.5 µM; with LOX IMVI melanoma it was 39.3 µM. Also, the TGI is 33.3 µM with MCF7 breast; more than 100 µM with MDA-N; 37.7 µM in the assay with NCI-H226 lung; 41.8 µM in the assay on NCI-H23 lung; 42.8 µM with OVCAR-8 ovarian; 39.7 µM in the assay with SF-268 CNS. Also, the TGI with SF-295 CNS is more than 100 µM; in the assay with SK-MEL-2 melanoma, 38.5 µM; in the assay on SN12C renal, 37.5 µM; with SNB-75 CNS, 34.3 µM; in the assay on UACC-62 melanoma it was 56.7 µM.

As to `O=c1[nH]nc(-c2ccc(F)cc2)cc1-c1ccccc1`, the TGI in the assay on CAKI-1 renal, in the assay on CCRF-CEM leukemia, with DU-145 prostate, in the assay with EKVX NSCLC, in the assay on HCC-2998 colon and in the assay on LOX IMVI melanoma was more than 100 µM in each case. For the same molecule, the TGI with MCF7 breast, in the assay with MDA-MB-231 breast, in the assay on NCI-H226 lung, with NCI-H23 lung, with OVCAR-8 ovarian and with SF-268 CNS was more than 100 µM in each case. The TGI in the assay on SF-295 CNS, in the assay on SK-MEL-2 melanoma, in the assay on SN12C renal, in the assay on TK-10 renal and in the assay on UACC-62 melanoma was more than 100 µM each time.

For `COC(=O)CNC(=O)CCC(C)[C@H]1CCC2C3C(C[C@H](OC(C)=O)[C@@]21C)[C@@]1(C)CCC2(C[C@H]1C[C@H]3OC(C)=O)OOC1(CCCCC1)OO2` (stereo not given in full), the TGI with CAKI-1 renal is 3.78 µM; in the assay on CCRF-CEM leukemia, 5.02 µM; with EKVX NSCLC, 3.74 µM; in the assay with HCC-2998 colon, 5.98 µM; with MCF7 breast it was 13.9 µM; in the assay on MDA-MB-231 breast, 3.48 µM. Also, the total growth inhibition concentration (TGI) in the assay with MDA-N came out at 3.36 µM; with NCI-H226 lung, 4.65 µM; in the assay on NCI-H23 lung it was 3.64 µM; in the assay with OVCAR-8 ovarian it was 4.16 µM; in the assay with SF-268 CNS, 3.59 µM; in the assay on SF-295 CNS, 18.4 µM. The TGI in the assay on SK-MEL-2 melanoma came out at 6.49 µM; with SN12C renal it was 3.17 µM; with SNB-75 CNS, 5.3 µM; in the assay on TK-10 renal, 24.2 µM; with UACC-62 melanoma it was 21.7 µM.

On to `Cc1cc(C)nc(NS(=O)(=O)c2ccc(NC(=O)c3cc([N+](=O)[O-])cc([N+](=O)[O-])c3)cc2)n1`, for which the TGI in the assay with CAKI-1 renal, in the assay on CCRF-CEM leukemia, in the assay on DU-145 prostate, with LOX IMVI melanoma, with MCF7 breast and in the assay with MDA-MB-231 breast was more than 100 µM in each case. For the same molecule, the TGI in the assay with MDA-N, in the assay with NCI-H226 lung, in the assay with NCI-H23 lung, in the assay on OVCAR-8 ovarian, with SF-268 CNS and in the assay on SK-MEL-2 melanoma was more than 100 µM throughout. In addition, the TGI in the assay on SN12C renal, in the assay with SNB-75 CNS, in the assay on TK-10 renal and in the assay with UACC-62 melanoma was more than 100 µM each time.

As for `CC(=O)O[C@H]1C(=O)[C@@]2(C)[C@H]([C@H](OC(=O)c3ccccc3)[C@]3(O)C[C@H](OC(=O)[C@H](O)[C@@H](NC(=O)c4ccc(N(C)C)cc4)c4ccccc4)C(C)=C1C3(C)C)[C@]1(OC(C)=O)CO[C@@H]1C[C@@H]2O`, the TGI is more than 50 µM in the assay with CAKI-1 renal; 2.34 µM with CCRF-CEM leukemia; more than 50 µM in the assay on EKVX NSCLC; more than 50 µM with LOX IMVI melanoma; more than 50 µM with MCF7 breast; more than 50 µM in the assay on MDA-MB-231 breast. The TGI in the assay with NCI-H23 lung, with OVCAR-8 ovarian, in the assay on SF-268 CNS, with SF-295 CNS, in the assay on SN12C renal and in the assay on SNB-75 CNS was more than 50 µM each time. Further, the TGI is more than 45.1 µM in the assay with TK-10 renal and more than 50 µM in the assay on UACC-62 melanoma.

As for `NC(N)=N/N=C/c1c(-c2cc([N+](=O)[O-])c(Cl)cc2Cl)nc2n1CCS2`, the TGI is more than 100 µM in the assay on CAKI-1 renal; more than 100 µM in the assay on CCRF-CEM leukemia; 87.2 µM with DU-145 prostate; more than 100 µM in the assay on EKVX NSCLC; 5.4 µM in the assay on HCC-2998 colon; more than 100 µM in the assay on LOX IMVI melanoma. The TGI in the assay with MDA-MB-231 breast was more than 100 µM; in the assay on NCI-H226 lung, 92.5 µM; in the assay on NCI-H23 lung it was 48.3 µM; in the assay on OVCAR-8 ovarian, more than 100 µM; in the assay with SF-268 CNS, more than 100 µM; with SF-295 CNS it was 70.4 µM. Further, the TGI was 9.45 µM in the assay with SK-MEL-2 melanoma, more than 100 µM with SN12C renal, 45.9 µM in the assay on TK-10 renal and 97.1 µM in the assay on UACC-62 melanoma.

In the case of `CC(=O)NC1C(OCc2ccccc2)OC(CO)C(O)C1OCC(=O)N[C@@H](C)C(=O)N[C@H](CCC(=O)NCCNc1ccc([N+](=O)[O-])c2[nH]c3ccccc3c(=O)c12)C(N)=O` (stereo not given in full), the TGI in the assay with CAKI-1 renal is more than 100 µM; in the assay with CCRF-CEM leukemia it was more than 100 µM; with DU-145 prostate it was more than 100 µM; in the assay on EKVX NSCLC, 60.5 µM; with HCC-2998 colon, 36 µM; in the assay with LOX IMVI melanoma, 99.5 µM. In addition, the TGI was 94.4 µM with MDA-MB-231 breast; more than 100 µM in the assay on MDA-N; 32.4 µM in the assay with NCI-H226 lung; 90 µM with NCI-H23 lung; 61.2 µM in the assay with OVCAR-8 ovarian; more than 100 µM with SF-295 CNS. Further, the TGI with SN12C renal is more than 100 µM; in the assay on SNB-75 CNS it was 61.5 µM; in the assay with TK-10 renal, 42.3 µM; in the assay with UACC-62 melanoma, 46.6 µM.

Turning to `COc1cc(S(=O)(=O)Nc2ccc(-c3csc(N4C(=O)C(Cl)C4c4cccs4)n3)cc2)ccc1Cl` (stereo not given), the TGI in the assay with CAKI-1 renal was more than 100 µM; in the assay on CCRF-CEM leukemia it was 35.7 µM; with DU-145 prostate, more than 100 µM; with EKVX NSCLC, more than 100 µM; in the assay on HCC-2998 colon, more than 100 µM; in the assay with LOX IMVI melanoma, 5.15 µM. The TGI in the assay on MCF7 breast, with MDA-N, in the assay with NCI-H226 lung, with NCI-H23 lung, in the assay on OVCAR-8 ovarian and in the assay with SF-268 CNS was more than 100 µM in each case. Moreover, the TGI with SF-295 CNS, in the assay on SK-MEL-2 melanoma, in the assay on SN12C renal, in the assay with SNB-75 CNS and in the assay on UACC-62 melanoma was more than 100 µM in each case.
